Numbering of substitutions follows the chain as printed.
How the values were obtained:
[1] = target: T1, β-glucocerebrosidase Wild Type (WT) (Homo sapiens, UniProt P04062); assay: β-glucocerebrosidase activity enhancement, Wild Type (WT); type: cell-based; settings: increase in enzyme activity vs non-treated cells; for Activity WT: commercially available compounds
T1 construct: endogenous in cells
T1 sequence (P04062 40-536): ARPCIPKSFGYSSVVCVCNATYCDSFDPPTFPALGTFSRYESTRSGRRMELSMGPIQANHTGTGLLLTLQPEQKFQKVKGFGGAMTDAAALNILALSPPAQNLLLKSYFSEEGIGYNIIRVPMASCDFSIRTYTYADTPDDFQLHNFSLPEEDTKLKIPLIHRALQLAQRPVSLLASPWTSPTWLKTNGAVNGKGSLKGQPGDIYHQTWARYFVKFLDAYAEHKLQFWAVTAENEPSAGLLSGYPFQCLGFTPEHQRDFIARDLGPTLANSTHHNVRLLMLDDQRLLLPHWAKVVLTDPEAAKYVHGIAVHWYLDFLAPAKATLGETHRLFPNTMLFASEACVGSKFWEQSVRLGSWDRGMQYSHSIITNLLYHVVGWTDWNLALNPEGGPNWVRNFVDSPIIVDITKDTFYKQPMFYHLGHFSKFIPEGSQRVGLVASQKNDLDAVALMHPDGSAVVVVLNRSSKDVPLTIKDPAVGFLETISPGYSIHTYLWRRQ
Procedure: Fibroblasts were seeded at 5×10^3 cells per well in 96-well cell culture plates (Corning, N.Y., USA) in Dulbecco's Modified Eagle's Media (DMEM) supplemented with 10% of fetal bovine serum (FBS), 1% penicillin/streptomycin (P/S) (Thermo Fisher Scientific, Waltham, Mass., USA) and grown at 37° C., 5% CO2 overnight for cell attachment. Subsequently, cells were incubated in the absence or presence of the compounds at the desired concentration for 4 days. After incubation, cells were washed twice with phosphate-buffered saline (PBS) and enzyme activity assay was performed.
β-glucocerebrosidase activity in intact cultured cells was measured by using 4-methylumbelliferyl-β-D-glucopyranoside substrate (Apollo Scientific, UK). Briefly, cells were incubated with 4-MU-β-D-glucopyranoside in 0.1 M acetate buffer pH=4 at 37° C. for 1 hour. […] The liberated 4-MU was measured on a GloMax Discover plate reader (Promega, Madison, Wis., USA) with and excitation at 340 nm and emission at 460 nm. Enzyme activities were expressed in treated cells as X-fold increase in comparison with non-treated cells (X=1 represents no enhancement).
The following compounds listed in Table 2 were purchased (from Enamine, Princeton, Asinex, Vistas-M, and OSSK_541352) and tested in the assay as described above.

[2] = target: T2, β-glucocerebrosidase, p.L444P mutation (GM08760A fibroblasts) (Homo sapiens, UniProt P04062, L483P); assay: Enhancement of β-glucocerebrosidase activity measured in Gaucher disease fibroblasts (L444P); type: cell-based; settings: increase in enzyme activity vs non-treated cells, GBA fibroblasts bearing L444P
T2 construct: host or cells: human Gaucher patient fibroblasts GM08760A, homozygous L444P
T2 sequence (P04062 40-536 L483P): T1 sequence (P04062 40-536) with L444P
Outline: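 GM08760A fibroblasts (homozygous p.L444P), 5×10^3 cells/well, treated with compound for 4 days at 37° C. Intact cells then incubated with 4-MU-β-D-glucopyranoside in 0.1 M acetate buffer pH=4 for 1 hour at 37° C.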

[3] = concentrations between 6 and 50 μM, 4 days incubation
[4] = commercially available compounds, 6-50 μM, 4 days

Row | Structure (SMILES) | Activity Wild Type (WT) [1] | Activity L444P [2, 3] | Activity WT [1] | Activity L444P [2, 4]
1 | CCN(Cc1ccccc1)Cc1cc(Nc2cccc(OC)c2)nc(N)n1 [Example 48, 6-((Benzyl(ethyl)amino)methyl)-N^4-(3-methoxyphenyl)pyrimidine-2,4-diamine] | B (Increase in comparison with non-treated of >1.7-2.0 fold is shown as B) | C (Increase in comparison with non-treated of 1.2-1.7 fold is shown as C) |  | 
2 | COc1cccc(Nc2cc(CN3CCCC3c3ccccc3)nc(N)n2)c1 (stereo not shown) [Example 50] | C (Increase in comparison with non-treated of 1.2-1.7 fold is shown as C) | C (Increase in comparison with non-treated of 1.2-1.7 fold is shown as C) |  | 
3 | Cc1ccc(Nc2cc(CN(C)Cc3ccccc3)nc(N)n2)cc1 [Example 52, 6-((Benzyl(methyl)amino)methyl)-N^4-p-tolylpyrimidine-2,4-diamine] | C (Increase in comparison with non-treated of 1.2-1.7 fold is shown as C) | C (Increase in comparison with non-treated of 1.2-1.7 fold is shown as C) |  | 
4 | Cc1cccc(Nc2cc(N)nc(CN(C)Cc3ccccc3)n2)c1 [Example 64, 2-((Benzyl(methyl)amino)methyl)-N^4-m-tolylpyrimidine-4,6-diamine] | B (Increase in comparison with non-treated of >1.7-2.0 fold is shown as B) | B (Increase in comparison with non-treated of >1.7-2.0 fold is shown as B) |  | 
5 | COc1cccc(Nc2cc(N)nc(CN(C)Cc3ccccc3)n2)c1 [Example 65, 2-((Benzyl(methyl)amino)methyl)-N^4-(3-methoxyphenyl)pyrimidine-4,6-diamine] | A (Increase in comparison with non-treated of >2.0 fold is shown as A) | B (Increase in comparison with non-treated of >1.7-2.0 fold is shown as B) |  | 
6 | COc1ccccc1Nc1nc(N)cc(CN(C)Cc2ccccc2)n1 [Example 67, 6-((Benzyl(methyl)amino)methyl)-N^2-(2-methoxyphenyl) pyrimidine-2,4-diamine] | B (Increase in comparison with non-treated of >1.7-2.0 fold is shown as B) | A (Increase in comparison with non-treated of >2.0 fold is shown as A) |  | 
7 | Cc1cccc(Nc2nc(N)cc(CN(C)Cc3ccccc3)n2)c1 [Example 68, 6-((Benzyl(methyl)amino)methyl)-N^2-m-tolylpyrimidine-2,4-diamine] | A (Increase in comparison with non-treated of >2.0 fold is shown as A) | B (Increase in comparison with non-treated of >1.7-2.0 fold is shown as B) |  | 
8 | COc1cccc(Nc2nc(N)cc(CN(C)Cc3ccccc3)n2)c1 [Example 69, 6-((Benzyl(methyl)amino)methyl)-N^2-(3-methoxyphenyl)pyrimidine-2,4-diamine] | C (Increase in comparison with non-treated of 1.2-1.7 fold is shown as C) | A (Increase in comparison with non-treated of >2.0 fold is shown as A) |  | 
9 | COc1ccc(Nc2nc(N)cc(CN(C)Cc3ccccc3)n2)cc1 [Example 70] | B (Increase in comparison with non-treated of >1.7-2.0 fold is shown as B) | A (Increase in comparison with non-treated of >2.0 fold is shown as A) |  | 
10 | Nc1nc(CN2Cc3ccccc3C2)nc(Nc2ccc(F)cc2)n1 [N2-(4-fluorophenyl)-6-(isoindolin-2-ylmethyl)-1,3,5-triazine-2,4-diamine] |  |  | C (Increase in comparison with non-treated of 1.2-1.7 fold is shown as C) | B (Increase in comparison with non-treated of >1.7-2.0 fold is shown as B)
11 | COc1cccc(N2CCN(Cc3nc(N)nc(NCc4ccccc4)n3)CC2)c1 [N2-benzyl-6-((4-(3-methoxyphenyl)piperazin-1-yl)methyl)-1,3,5-triazine-2,4-diamine] |  |  | C (Increase in comparison with non-treated of 1.2-1.7 fold is shown as C) | C (Increase in comparison with non-treated of 1.2-1.7 fold is shown as C)
